Experimental findings from patent US12077503B2, “Substituted cyclic amides and their use as herbicides” (FMC CORPORATION, priority 2015, dated 2024) are described below.

What all share (type): in vivo
The subject of assay [1] is ragweed (common ragweed, Ambrosia elatior). Kind of assay: Test A postemergence. Conditions: Ambrosia artemisiifolia, post-emergence, 240 h, 125 g ai/ha, postemergence, visual injury rating after approximately 10 d; read-out: Ragweed plant response rating (0 to 100 scale, 0 no effect, 100 complete control). The essentials: (§1)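 Compounds were formulated in a non-phytotoxic solvent mixture with surfactant and applied as a preemergence directed soil spray after seeding, or sprayed postemergence over plants 2 to 10 cm tall at the one- to two-leaf stage. Evaluation after about 10 d compared treated with untreated controls, using a scale from 0 (no effect) to 100 (complete control).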

The test system of assay [2] is wheat (Triticum aestivum). As to the kind of experiment: Test A postemergence. The note with it: Triticum aestivum, post-emergence, 240 h, 125 g ai/ha, postemergence, visual injury rating after approximately 10 d; read-out: Wheat plant response rating (0 to 100 scale, 0 no effect, 100 complete control). The essentials: as §1
Assay [3] has as its system Kochia (Kochia scoparia). As to the kind of experiment: Test A postemergence. The note with it: Bassia scoparia, post-emergence, 240 h, 125 g ai/ha, postemergence, visual injury rating after approximately 10 d; read-out: Kochia plant response rating (0 to 100 scale, 0 no effect, 100 complete control). The gist of the method: as §1
In assay [4] the test system is Galium (catchweed bedstraw, Galium aparine). As to the kind of experiment: Test A postemergence. Conditions: Galium, post-emergence, 240 h, 125 g ai/ha, postemergence, visual injury rating after approximately 10 d; read-out: Galium plant response rating (0 to 100 scale, 0 no effect, 100 complete control). The gist of the method: as §1
The subject of assay [5] is blackgrass (Alopecurus myosuroides). Kind of assay: Test A postemergence. The note with it: Alopecurus myosuroides, post-emergence, 240 h, 125 g ai/ha, postemergence, visual injury rating after approximately 10 d; read-out: Blackgrass plant response rating (0 to 100 scale, 0 no effect, 100 complete control). The gist of the method:
as §1

Assay [6] has as its system corn (Zea mays). As to the kind of experiment: Test A postemergence. Conditions: Zea mays, post-emergence, 240 h, 125 g ai/ha, postemergence, visual injury rating after approximately 10 d; read-out: Corn plant response rating (0 to 100 scale, 0 no effect, 100 complete control). The essentials: as §1
The subject of assay [7] is giant foxtail (Setaria faberii). Kind of assay: Test A postemergence. Conditions: Setaria faberi, post-emergence, 240 h, 125 g ai/ha, postemergence, visual injury rating after approximately 10 d; read-out: Foxtail, Giant plant response rating (0 to 100 scale, 0 no effect, 100 complete control). The gist of the method:
as §1

Assay [8] concerns barnyardgrass (Echinochloa crus-galli). Kind of assay: Test A postemergence. Conditions: Echinochloa crus-galli, post-emergence, 240 h, 125 g ai/ha, postemergence, visual injury rating after approximately 10 d; read-out: Barnyardgrass plant response rating (0 to 100 scale, 0 no effect, 100 complete control). The gist of the method:
as §1

Assay [9] relates to ryegrass, Italian (Italian ryegrass, Lolium multiflorum). Kind of assay: Test A postemergence. The note with it: Lolium multiflorum, post-emergence, 240 h, 125 g ai/ha, postemergence, visual injury rating after approximately 10 d; read-out: Ryegrass, Italian plant response rating (0 to 100 scale, 0 no effect, 100 complete control). The gist of the method: as §1
In assay [10] the test system is pigweed (Amaranthus retroflexus). Kind of assay: Test A postemergence. Conditions: Amaranthus retroflexus, post-emergence, 240 h, 125 g ai/ha, postemergence, visual injury rating after approximately 10 d; read-out: Pigweed plant response rating (0 to 100 scale, 0 no effect, 100 complete control). The essentials: as §1
Assay [11] relates to ragweed (common ragweed, Ambrosia elatior). Kind of assay: Test A preemergence. The note with it: Ambrosia artemisiifolia, pre-emergence, 240 h; for pest or weed control at 125 g/ha: 125 g ai/ha, preemergence, 0 to 100 scale where 0 is no effect and 100 is complete control, read-out: Ragweed plant response rating; for pest or weed control at 500 g/ha: 500 g ai/ha, Preemergence, visual injury vs untreated controls after approximately 10 d, read-out: Ragweed plant response rating (0 to 100 scale where 0 is no effect and 100 is complete control). The gist of the method: as §1

Assay [12] concerns Kochia (Kochia scoparia). Kind of assay: Test A preemergence. Conditions: Bassia scoparia, pre-emergence, 240 h; for pest or weed control at 125 g/ha: 125 g ai/ha, preemergence, 0 to 100 scale where 0 is no effect and 100 is complete control, read-out: Kochia plant response rating; for pest or weed control at 500 g/ha: 500 g ai/ha, Preemergence, visual injury vs untreated controls after approximately 10 d, read-out: Kochia plant response rating (0 to 100 scale where 0 is no effect and 100 is complete control). The essentials: as §1

For assay [13], the system named is giant foxtail (Setaria faberii). As to the kind of experiment: Test A preemergence. Conditions: Setaria faberi, pre-emergence, 240 h; for pest or weed control at 125 g/ha: 125 g ai/ha, preemergence, 0 to 100 scale where 0 is no effect and 100 is complete control, read-out: Foxtail, Giant plant response rating; for pest or weed control at 500 g/ha: 500 g ai/ha, Preemergence, visual injury vs untreated controls after approximately 10 d, read-out: Foxtail, Giant plant response rating (0 to 100 scale where 0 is no effect and 100 is complete control). The essentials:
as §1

Assay [14] relates to barnyardgrass (Echinochloa crus-galli). As to the kind of experiment: Test A preemergence. Conditions: Echinochloa crus-galli, pre-emergence, 240 h; for pest or weed control at 125 g/ha: 125 g ai/ha, preemergence, 0 to 100 scale where 0 is no effect and 100 is complete control, read-out: Barnyardgrass plant response rating; for pest or weed control at 500 g/ha: 500 g ai/ha, Preemergence, visual injury vs untreated controls after approximately 10 d, read-out: Barnyardgrass plant response rating (0 to 100 scale where 0 is no effect and 100 is complete control). The gist of the method:
as §1

The test system of assay [15] is ryegrass, Italian (Italian ryegrass, Lolium multiflorum). As to the kind of experiment: Test A preemergence. The note with it: Lolium multiflorum, pre-emergence, 240 h; for pest or weed control at 125 g/ha: 125 g ai/ha, preemergence, 0 to 100 scale where 0 is no effect and 100 is complete control, read-out: Ryegrass, Italian plant response rating; for pest or weed control at 500 g/ha: 500 g ai/ha, Preemergence, visual injury vs untreated controls after approximately 10 d, read-out: Ryegrass, Italian plant response rating (0 to 100 scale where 0 is no effect and 100 is complete control). The gist of the method:
as §1

Assay [16] deals with pigweed (Amaranthus retroflexus). As to the kind of experiment: Test A preemergence. The note with it: Amaranthus retroflexus, pre-emergence, 240 h; for pest or weed control at 125 g/ha: 125 g ai/ha, preemergence, 0 to 100 scale where 0 is no effect and 100 is complete control, read-out: Pigweed plant response rating; for pest or weed control at 500 g/ha: 500 g ai/ha, Preemergence, visual injury vs untreated controls after approximately 10 d, read-out: Pigweed plant response rating (0 to 100 scale where 0 is no effect and 100 is complete control).

Regarding `Cc1c(F)ccc([C@H]2CN(C)C(=O)[C@@H]2C(=O)Nc2ccccc2S(C)(=O)=O)c1F` [Compound 842], the pest or weed control at 125 g/ha was determined as 30% in [1]; 30% in [3]; 50% in [4]; 30% in assay [5]; 90% in [7]; 90% in assay [8]. In addition, the pest or weed control at 125 g/ha in assay [9] is 20%; in assay [10], 30%; in [11] it was 70%; in assay [12], 80%; in assay [13], 90%; in [14] it was 90%. The pest or weed control at 125 g/ha amounted to 30% in assay [15] and 40% in [16]. Also, the values for the plant injury at 125 g/ha in assay [2] and in assay [6] were 30% and 20%, respectively. The pest or weed control at 500 g/ha in [11] was found to be 80%; in assay [12], 80%; in assay [13] it was 100%; in assay [14], 90%; in assay [15], 60%; in [16], 70%.

In the case of `CN1CC(c2cccc(C=O)c2)C(C(=O)Nc2ccccc2F)C1=O` (stereo not drawn) [Compound 844], the pest or weed control at 125 g/ha in [1], in assay [3], in [4], in assay [5], in assay [7] and in assay [8] was 0% in each case. Moreover, the pest or weed control at 125 g/ha in [9], in assay [10], in assay [11], in assay [12], in assay [13] and in [14] was 0% each time. In addition, the pest or weed control at 125 g/ha in assay [15] and in assay [16] was 0% each time. The plant injury at 125 g/ha in [2] and in assay [6] was 0% each time. Besides, the pest or weed control at 500 g/ha in assay [11] is 0%; in [12], 0%; in assay [13], 30%; in assay [14], 20%; in assay [15], 0%; in assay [16] it was 0%.

Take `O=C1NCC(c2cccc(I)c2)C1C(=O)Nc1ccccc1F` (stereo not drawn) [Compound 845]: the pest or weed control at 125 g/ha in assay [1] was found to be 0%; in assay [3], 0%; in [4] it was 20%; in [5], 40%; in assay [7], 90%; in assay [8], 80%. The pest or weed control at 125 g/ha amounted to 30% in assay [9]; 0% in assay [10]; 0% in assay [11]; 40% in [12]; 80% in [13]; 90% in assay [14]. Moreover, the pest or weed control at 125 g/ha in assay [15] and in assay [16] was 0% in each case. In addition, the plant injury at 125 g/ha in assay [2] is 0%; in [6], 30%. Moreover, the pest or weed control at 500 g/ha in assay [11] was 0%; in assay [12], 90%; in [13], 90%; in assay [14], 90%; in assay [15], 30%; in [16], 0%.
